Laboratory results as given in BindingDB's records for doi:10.1021/jm980707k (University of Alabama At Birmingham, 1999).

Assay: In vitro inhibitory activity against H1N9 Influenza A Neuraminidase.

SMILES	IC50 [µM]
CCC(CC)Nc1cc(C(=O)O)ccc1N1CCCC1=O [3-(1-Ethyl-propylamino)-4-(2-oxo-pyrrolidin-1-yl)-benzoic acid]	222
NC(N)=Nc1cc(C(=O)O)ccc1N1C(=O)CCC1(CO)CO [4-(2,2-Bis-hydroxymethyl-5-oxo-pyrrolidin-1-yl)-3-guanidino-benzoic acid]	5
O=C(O)c1ccc(N2C(=O)CCC2(CO)CO)cc1 [4-(2,2-Bis-hydroxymethyl-5-oxo-pyrrolidin-1-yl)-benzoic acid anion]	760
NCC1CCC(=O)N1c1ccc(C(=O)O)cc1N=C(N)N (stereo unspecified) [4-(2-Aminomethyl-5-oxo-pyrrolidin-1-yl)-3-guanidino-benzoic acid]	2600
CCC(CC)Nc1cc(C(=O)O)ccc1N1C(=O)CCC1(CO)CO [4-[2,2-bis(hydroxymethyl)-5-oxopyrrolidin-1-yl]-3-[(1-ethylpropyl)amino]benzoic acid]	0.048
CC(=O)N[C@@H]1[C@@H]([C@H](O)[C@H](O)CO)O[C@](O)(C(=O)O)C[C@H]1O [(2S,4R,5S,6S)-5-Acetylamino-2,4-dihydroxy-6-((1R,2R)-1,2,3-trihydroxy-propyl)-tetrahydro-pyran-2-carboxylic acid]	10
